Type in all cases: in vivo
One experiment concerns wheat. Briefly: Soil drought experiment, wheat. As to conditions: 100 μM sprayed once every 3 days; 6 days of drought; FIG. 17. As for the experimental part:
(§1) Soybean, cotton and wheat for leaf transpiration experiments were used simultaneously for soil drought experiments, each pot was filled with the same weight of soil to reduce experimental error. All the soybean plants were subjected to a long-day culture at 26° C. 14 days after sowing, watering was stopped and the plants with the consistent growth condition were selected for drought treatment. At the start of the drought, a solution containing 0.1% Tween-20 and 20 μM (+)-ABA/0224/0304 or 0.1% Tween-20 and 0.05% DMSO (control) was sprayed onto the leaf surface once with a spray amount of 4 ml solution/pot. Meanwhile, the position of the pot was changed and re-watered 6 days after the drought, and the photos were taken 1 day after re-watering. The drought experiment of cotton was similar to that of soybeans, watering was stopped 25 days after sowing, the plants with the consistent growth condition were selected for drought treatment. At the start of the drought, a solution containing 0.1% Tween-20 and 20 μM (+)-ABA/0224 or 0.1% Tween-20 and 0.05% DMSO (control) was sprayed onto the leaf surface once with a spray amount of 4 ml solution/pot, and then sprayed once every 3 days. Meanwhile, the position of the pot was changed and re-watered 6 days after the drought, and the photos were taken before re-watering and 1 day after re-watering. […]

The test system of the next experiment is cotton. Description: Soil drought experiment, cotton. The following applies: 20 μM sprayed once every 3 days; re-watering after 6 days of drought; FIG. 9. As for the experimental part: as §1
The subject of a further experiment is corn. Briefly: Soil drought experiment, corn. The following applies: 50 μM sprayed once a day for two days; 4 days of drought; FIG. 14b. As to the method: Soil drought experiments used for compound 0428 on soybean and maize were similar to that used for compound 0224 on soybeans, with only one plant contained in each pot. All soybean plants were long-day cultured at 26° C. Watering was stopped after the plant had three leaves in each of three groups and the plants with consistent growth were selected for drought treatment. As for corn, watering was stopped during the small bell-mouthed period for drought treatment. A solution containing 0.05% tween-20 and 50 μM (+)-0428 or 0.05% Tween-20 and 0.05% DMSO (control) was sprayed once on leaf surface on the first day and the second day of the drought, respectively, with a spray amount of 4 ml/pot. Meanwhile the pot position was also changed. The soybeans were re-watered 9 days after the drought, the corn was re-watered 4 days after the drought, and the photos were taken the next day.
In another group of experiments, soil drought experiments were performed on soybeans with three leaves in three groups or corn plants during the small trumpet period of the same size.

Entries after “also recorded” stand apart in the source; their conditions may differ.

For `CC1=CC(=O)CC(C)(C)[C@@]1(O)/C=C/C(C)=C\C(=O)O` [ABA, Abscisic Acid, reference compound], the growth after drought entry with wheat is reported as “significantly better than that in the control group (DMSO); also recorded: remained upright”.

Consider `CCCN1C(=O)OC(C)c2cc(NS(=O)(=O)Cc3c(F)c(F)c(C)c(F)c3F)ccc21` (stereo not shown) [Compound 0224], for which the “growth after drought and re-watering” value in the experiment with cotton is “significantly better than that of the control group (DMSO) or that of the cotton treated with the same concentration of ABA; also recorded: significantly better growth after re-watering than that in the DMSO-sprayed control group and the plants sprayed with the same concentration of ABA”. The growth after drought result in the experiment on wheat is reported as “significantly better than that in the control group (DMSO); also recorded: remained upright”.

As for `CCCN1C(=O)OCc2cc(NS(=O)(=O)Cc3c(F)c(F)c(C)c(F)c3F)ccc21` [Compound 0428], the “growth after drought and re-watering” value with corn is “significantly better growth after re-watering than that in the DMSO-sprayed control group”.
